Laboratory results as given in US20250296959A1, “B7-H3 TARGETING PEPTIDES AND CONSTRUCTS THEREOF” (Mariana Oncology Inc., priority 2024, published 2025).
Starred links: 1 amine or outer side, 2 acyl side, 3 side chain; linkers in the order of their positions; H or OH if unused. Positions of bridges follow the written chain, without caps; N, C: chain ends. Non-standard residues stand in square brackets, D forms with d. Residues, ends and D or L forms follow the SMILES beside them. Groups on a side chain read outwards from the residue. *: point of attachment. X6 = CSCC[C@H](NC(=O)c1ccc(CNC(=O)CN2CCN(CC(=O)O)CCN(CC(=O)O)CCN(CC(=O)O)CC2)cc1)C(=O)N[C@H](C(=O)N[C@@H](CCCCN*)C(=O)O)C(C)C; Ala(1-CH2CO2H-4-piperidyl) = N[C@@H](CC1CCN(CC(=O)O)CC1)C(=O)O; Ala(piperidin-4-yl) = O=C([C@H](CC1CCN([*:3])CC1)N[*:1])[*:2]; Phe(3-CH2NH2) = O=C([C@H](Cc1cccc(CN[*:3])c1)N[*:1])[*:2]; DOTA = O=C(O)CN1CCN(CC(=O)O)CCN(CC(=O)*)CCN(CC(=O)O)CC1; NH(CH2CH2O)4CH2CO = O=C(COCCOCCOCCOCCN[*:1])[*:2]; Trp(4-Me) = Cc1cccc2[nH]cc(C[C@H](N)C(=O)O)c12; Trp(5-F) = N[C@@H](Cc1c[nH]c2ccc(F)cc12)C(=O)O; X1 = C[C@@H](c1ccccc1)[C@H](N[*:1])C(=O)[*:2]; Phe(4-F) = N[C@@H](Cc1ccc(F)cc1)C(=O)O; 1Nal = N[C@@H](Cc1cccc2ccccc12)C(=O)O; Ala(4-THP) = N[C@@H](CC1CCOCC1)C(=O)O; Val(3-OH) = CC(C)(O)[C@H](N)C(=O)O; 4Pal = N[C@@H](Cc1ccncc1)C(=O)O; Chg = N[C@H](C(=O)O)C1CCCCC1; Tle = CC(C)(C)[C@H](N)C(=O)O; hLeu = CC(C)CC[C@H](N)C(=O)O; NMeS = CN[C@@H](CO)C(=O)O; PEG2 = NCCOCCOCCC(=O)O

Molecular target: T1, human 4lg B7-H3 (Homo sapiens, UniProt Q5ZPR3)
T1 sequence (Q5ZPR3 29-534): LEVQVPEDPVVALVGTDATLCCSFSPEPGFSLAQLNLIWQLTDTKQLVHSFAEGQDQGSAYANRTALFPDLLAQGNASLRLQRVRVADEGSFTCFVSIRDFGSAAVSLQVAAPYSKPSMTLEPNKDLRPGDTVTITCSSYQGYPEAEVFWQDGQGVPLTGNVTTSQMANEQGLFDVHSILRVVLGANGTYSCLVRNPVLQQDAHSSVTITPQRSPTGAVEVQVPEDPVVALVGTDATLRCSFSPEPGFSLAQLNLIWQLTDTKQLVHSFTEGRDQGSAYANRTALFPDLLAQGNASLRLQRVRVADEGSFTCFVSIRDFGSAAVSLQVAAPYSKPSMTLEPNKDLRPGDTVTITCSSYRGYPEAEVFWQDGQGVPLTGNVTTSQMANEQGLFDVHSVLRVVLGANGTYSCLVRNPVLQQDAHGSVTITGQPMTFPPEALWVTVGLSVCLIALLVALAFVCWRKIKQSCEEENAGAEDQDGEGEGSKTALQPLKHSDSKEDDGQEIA
Test: Affinity determination by surface plasmon resonance (SPR) to 4Ig B7-H3
Details: 4Ig B7-H3

[1] = SPR KD—37° C., 37° C. flow cell temperature
[2] = SPR KD—25° C., 25° C. flow cell temperature

CC(=O)N[C@@H](CCC(C)C)C(=O)N[C@@H](Cc1ccc(O)cc1)C(=O)N[C@H]1CSSC[C@@H](C(=O)N[C@@H](Cc2c[nH]c3ccc(F)cc23)C(=O)N[C@@H](Cc2ccccc2)C(=O)N[C@H](C(=O)N[C@H](CO)C(N)=O)C(C)(C)O)NC(=O)[C@H](Cc2ccc(O)cc2)NC(=O)[C@H](C(C)C)NC(=O)[C@H](CC(=O)O)NC(=O)[C@H](CC2CCN(CC(=O)O)CC2)NC(=O)[C@H](CCCCNC(=O)CN2CCN(CC(=O)O)CCN(CC(=O)O)CCN(CC(=O)O)CC2)NC(=O)CNC(=O)[C@H](C(C)(C)C)NC1=O [compound 420, Ac-hLeu-Y-C-Tbg-G-Lys(DOTA)-Pip(CH2COOH)Ala-D-V-Y-C-5FW-F-hydroxyVal-dSer-CONH2] (Ac-[hLeu]YC[Tle]GK(DOTA)[Ala(1-CH2CO2H-4-piperidyl)]DVYC[Trp(5-F)]F[Val(3-OH)][dS]-NH2; disulfide 3-11)
Kd [1]: 1 to 10 nM

CSCC[C@H](NC(=O)c1ccc(CNC(=O)CN2CCN(CC(=O)O)CCN(CC(=O)O)CCN(CC(=O)O)CC2)cc1)C(=O)N[C@H](C(=O)N[C@@H](CCCCNC(=O)CC[C@@H]1NC(=O)[C@H](CC2CCNCC2)NC(=O)CNC(=O)[C@H](C(C)(C)C)NC(=O)[C@@H](NC(=O)[C@H](Cc2ccc(O)cc2)NC(=O)[C@H](CCC(C)C)NC(C)=O)CSSC[C@@H](C(=O)N[C@@H](Cc2c[nH]c3ccc(F)cc23)C(=O)N[C@H](C(=O)N[C@H](C(=O)N[C@H](CO)C(=O)O)C(C)(C)O)[C@@H](C)c2ccccc2)NC(=O)[C@H](Cc2ccc(O)cc2)NC(=O)[C@H](C(C)C)NC(=O)[C@H](CC(=O)O)NC1=O)C(=O)O)C(C)C [Cpd #518, Ac-hLeu-Y-C-Tbg-G-PipAla-Glu[&Lys(OH)-Val-Met-AmBz-DOTA]-D-V-Y-C-5FW-[(2S, 3S)beta-Me-Phe]-hydroxyVal-dSer-COOH] (Ac-[hLeu]YC[Tle]G[Ala(piperidin-4-yl)]E(X6)DVYC[Trp(5-F)][X1][Val(3-OH)][dS]-OH; disulfide 3-11)
Kd [1]: < 1 nM

CC(C)CC[C@H](NC(=O)COCCOCCOCCOCCNC(=O)CN1CCN(CC(=O)O)CCN(CC(=O)O)CCN(CC(=O)O)CC1)C(=O)N[C@@H](Cc1ccc(F)cc1)C(=O)N[C@H]1CSSC[C@@H](C(=O)N[C@@H](Cc2cccc3ccccc23)C(=O)N[C@@H](Cc2ccccc2)C(=O)N2CCC[C@H]2C(N)=O)NC(=O)[C@H](Cc2ccc(O)cc2)NC(=O)[C@H](C(C)C)NC(=O)[C@H](CC(=O)O)NC(=O)[C@H](CC2CCOCC2)NC(=O)[C@H](CC2CCNCC2)NC(=O)CNC(=O)[C@H](C(C)(C)C)NC1=O [compound 283, DOTA-PEG4-hLeu-4FPhe-C-Tbg-G-PipAla-ThpA-D-V-Y-C-1Nal-F-Pro-CONH2] ({DOTA}-[NH(CH2CH2O)4CH2CO][hLeu][Phe(4-F)]C[Tle]G[Ala(piperidin-4-yl)][Ala(4-THP)]DVYC[1Nal]FP-NH2; disulfide 4-12)
Kd [2]: 10 to 100 nM

CC(=O)N[C@@H](CCC(C)C)C(=O)N[C@@H](Cc1ccc(O)cc1)C(=O)N[C@H]1CSSC[C@@H](C(=O)N[C@@H](Cc2c[nH]c3ccc(F)cc23)C(=O)N[C@@H](Cc2ccccc2)C(=O)N[C@H](C(=O)N[C@H](CCC(=O)O)C(N)=O)C(C)(C)O)NC(=O)[C@H](Cc2ccc(O)cc2)NC(=O)[C@H](C(C)C)NC(=O)[C@H](CC(=O)O)NC(=O)[C@H](CC2CCN(C(=O)CCOCCOCCNC(=O)CN3CCN(CC(=O)O)CCN(CC(=O)O)CCN(CC(=O)O)CC3)CC2)NC(=O)[C@H](CC2CCNCC2)NC(=O)CNC(=O)[C@H](C(C)(C)C)NC1=O [Cpd #458, Ac-hLeu-Y-C-Tbg-G-PipAla-Pip(PEG2-DOTA)Ala-D-V-Y-C-5FW-F-hydroxyVal-dGlu-CONH2] (Ac-[hLeu]YC[Tle]G[Ala(piperidin-4-yl)][Ala(piperidin-4-yl)]([PEG2-DOTA])DVYC[Trp(5-F)]F[Val(3-OH)][dE]-NH2; disulfide 3-11)
Kd [1]: < 1 nM

CC(=O)N[C@@H](CCC(C)C)C(=O)N[C@@H](Cc1ccc(O)cc1)C(=O)N[C@H]1CSSC[C@@H](C(=O)N[C@@H](Cc2c[nH]c3ccc(F)cc23)C(=O)N[C@@H](Cc2ccccc2)C(=O)N2CCC[C@H]2C(=O)O)NC(=O)[C@H](Cc2ccc(O)cc2)NC(=O)[C@H](C(C)C)NC(=O)[C@H](CC(=O)O)NC(=O)[C@H](Cc2cccc(CNC(=O)CN3CCN(CC(=O)O)CCN(CC(=O)O)CCN(CC(=O)O)CC3)c2)NC(=O)[C@H](CCCCN)NC(=O)CNC(=O)[C@H](C(C)C)NC1=O [compound 262, Ac-hLeu-Y-C-V-G-K-MAF(DOTA)-D-V-Y-C-5FW-F-Pro-COOH] (Ac-[hLeu]YCVGK[Phe(3-CH2NH2)](DOTA)DVYC[Trp(5-F)]FP-OH; disulfide 3-11)
Kd [2]: 10 to 100 nM

CC(=O)N[C@@H](CCC(C)C)C(=O)N[C@@H](Cc1ccc(O)cc1)C(=O)N[C@H]1CSSC[C@@H](C(=O)N[C@@H](Cc2c[nH]c3ccccc23)C(=O)N[C@@H](Cc2ccccc2)C(=O)N[C@H](C(N)=O)[C@@H](C)O)NC(=O)[C@H](Cc2ccc(O)cc2)NC(=O)[C@H](C(C)C)NC(=O)[C@H](CC(=O)O)NC(=O)[C@H](CCCCNC(=O)CN2CCN(CC(=O)O)CCN(CC(=O)O)CCN(CC(=O)O)CC2)NC(=O)[C@H](CCCCN)NC(=O)CNC(=O)[C@H](C(C)C)NC1=O [compound 144, Ac-hLeu-Y-C-V-G-K-Lys(DOTA)-D-V-Y-C-W-F-Thr-CONH2] (Ac-[hLeu]YCVGKK(DOTA)DVYCWFT-NH2; disulfide 3-11)
Kd [2]: 10 to 100 nM

CC(=O)N[C@@H](CCC(C)C)C(=O)N[C@@H](Cc1ccc(O)cc1)C(=O)N[C@H]1CSSC[C@@H](C(=O)N[C@@H](Cc2c[nH]c3ccccc23)C(=O)N[C@@H](Cc2ccccc2)C(=O)N[C@H](C(=O)N[C@H](CCCCNC(=O)CN2CCN(CC(=O)O)CCN(CC(=O)O)CCN(CC(=O)O)CC2)C(N)=O)[C@@H](C)O)NC(=O)[C@H](Cc2ccc(O)cc2)NC(=O)[C@H](C2CCCCC2)NC(=O)[C@H](CC(=O)O)NC(=O)[C@H](Cc2ccc(O)cc2)NC(=O)[C@H](CCCCN)NC(=O)CNC(=O)[C@H](C(C)(C)C)NC1=O [compound 216, Ac-hLeu-Y-C-Tbg-G-K-Y-D-ChG-Y-C-W-F-Thr-dLys(DOTA)-CONH2] (Ac-[hLeu]YC[Tle]GKYD[Chg]YCWFT[dK](DOTA)-NH2; disulfide 3-11)
Kd [2]: < 1 nM

CC(=O)N[C@@H](CCC(C)C)C(=O)N[C@@H](Cc1ccc(O)cc1)C(=O)N[C@H]1CSSC[C@@H](C(=O)N[C@@H](Cc2c[nH]c3ccc(F)cc23)C(=O)N[C@@H](Cc2ccccc2)C(=O)N[C@H](C(=O)O)C(C)(C)O)NC(=O)[C@H](Cc2ccc(O)cc2)NC(=O)[C@H](C(C)C)NC(=O)[C@H](CC(=O)O)NC(=O)[C@H](CC2CCN(CC(=O)O)CC2)NC(=O)[C@H](CCCCNC(=O)CN2CCN(CC(=O)O)CCN(CC(=O)O)CCN(CC(=O)O)CC2)NC(=O)CNC(=O)[C@H](C(C)(C)C)NC1=O [compound 343, Ac-hLeu-Y-C-Tbg-G-Lys(DOTA)-Pip(CH2COOH)Ala-D-V-Y-C-5FW-F-hydroxyVal-COOH] (Ac-[hLeu]YC[Tle]GK(DOTA)[Ala(1-CH2CO2H-4-piperidyl)]DVYC[Trp(5-F)]F[Val(3-OH)]-OH; disulfide 3-11)
Kd [1]: 10 to 100 nM

CC(=O)N[C@@H](CCC(C)C)C(=O)N[C@@H](Cc1ccc(O)cc1)C(=O)N[C@H]1CSSC[C@@H](C(=O)N[C@@H](Cc2c[nH]c3cccc(C)c23)C(=O)N[C@@H](Cc2ccccc2)C(=O)N[C@H](C(=O)N[C@H](CCCCNC(=O)CN2CCN(CC(=O)O)CCN(CC(=O)O)CCN(CC(=O)O)CC2)C(=O)O)C(C)(C)O)NC(=O)[C@H](Cc2ccc(O)cc2)NC(=O)[C@H](C(C)C)NC(=O)[C@H](CC(=O)O)NC(=O)[C@H](CC2CCOCC2)NC(=O)[C@H](CC2CCNCC2)NC(=O)CNC(=O)[C@H](C(C)(C)C)NC1=O [compound 473, Ac-hLeu-Y-C-Tbg-G-PipAla-ThpA-D-V-Y-C-4MeW-F-hydroxyVal-dLys(DOTA)-COOH] (Ac-[hLeu]YC[Tle]G[Ala(piperidin-4-yl)][Ala(4-THP)]DVYC[Trp(4-Me)]F[Val(3-OH)][dK](DOTA)-OH; disulfide 3-11)
Kd [1]: 1 to 10 nM

CC(=O)N[C@@H](CCC(C)C)C(=O)N[C@@H](Cc1ccc(O)cc1)C(=O)N[C@H]1CSSC[C@@H](C(=O)N[C@@H](Cc2cccc3ccccc23)C(=O)N[C@@H](Cc2ccccc2)C(=O)N(C)[C@@H](CO)C(=O)N[C@H](CCCCNC(=O)CN2CCN(CC(=O)O)CCN(CC(=O)O)CCN(CC(=O)O)CC2)C(N)=O)NC(=O)[C@H](C2CCCCC2)NC(=O)[C@H](C(C)C)NC(=O)[C@H](CC(=O)O)NC(=O)[C@H](Cc2ccncc2)NC(=O)[C@H](CCCCN)NC(=O)CNC(=O)[C@H](C(C)(C)C)NC1=O [compound 243, Ac-hLeu-Y-C-Tbg-G-K-4PyA-D-V-Chg-C-1Nal-F-NMeSer-dLys(DOTA)-CONH2] (Ac-[hLeu]YC[Tle]GK[4Pal]DV[Chg]C[1Nal]F[NMeS][dK](DOTA)-NH2; disulfide 3-11)
Kd [2]: 10 to 100 nM

CC(=O)N[C@@H](CCC(C)C)C(=O)N[C@@H](Cc1ccc(O)cc1)C(=O)N[C@H]1CSSC[C@@H](C(=O)N[C@@H](Cc2c[nH]c3ccccc23)C(=O)N[C@@H](Cc2ccccc2)C(=O)N[C@H](C(=O)N[C@H](CCCCNC(=O)CN2CCN(CC(=O)O)CCN(CC(=O)O)CCN(CC(=O)O)CC2)C(N)=O)[C@@H](C)O)NC(=O)[C@H](Cc2ccc(O)cc2)NC(=O)[C@H](C(C)C)NC(=O)[C@H](CC(=O)O)NC(=O)[C@H](CC2CCNCC2)NC(=O)[C@H](CCCCN)NC(=O)CNC(=O)[C@H](C(C)C)NC1=O [compound 135, Ac-hLeu-Y-C-V-G-K-PipAla-D-V-Y-C-W-F-Thr-dLys(DOTA)-CONH2] (Ac-[hLeu]YCVGK[Ala(piperidin-4-yl)]DVYCWFT[dK](DOTA)-NH2; disulfide 3-11)
Kd [2]: 1 to 10 nM
